Experiments:
[1] = tested on: western equine encephalitis virus replicon; assay: microbe, parasite or virus in culture; assay type: cell-based
Fort Morgan virus (FMV) [2] = assay: microbe, parasite or virus in culture; conditions: BE(2)-C, 48 h, read-out: cell viability of FMV-infected cells
Fort Morgan virus (FMV) [3] = tested on: Fort Morgan virus (FMV)
Fort Morgan virus (FMV) [4] = assay type: cell-based
Sindbis virus (SINV) = assay: microbe, parasite or virus in culture; conditions: BE(2)-C, 48 h, read-out: cell viability of SINV-infected cells

Structure (SMILES) | IC50, dose-response analysis (SAR, figure 4) [1] | selectivity index (CC50/IC50 ratio) [1] | suppression of fLUC expression [1] | also measured
O=C(NCc1ccco1)C1CCN(C(=O)c2cc3sccc3n2Cc2ccc(Cl)cc2)CC1 [CCG32095] | submicromolar |  |  | 
NC(=O)c1ncn([C@@H]2O[C@H](CO)[C@@H](O)[C@H]2O)n1 [ribavirin] |  | 19 | ~ 80% | IC50 ([1]; Western equine encephalitis virus, BSR-T7/5, read-out: IC50, inhibition of fLUC activity): 16 µM
COc1c(C)c2c(c(O)c1C/C=C(\C)CCC(=O)O)C(=O)OC2 [mycophenolic acid] |  |  | ~ 80% | 
O=C(NCc1ccco1)C1CCN(C(=O)c2cc3sccc3n2Cc2ccc(F)cc2)CC1 [CCG32091, 1-({4-[(4-fluorophenyl)methyl]-4H-thieno[3,2-b]pyrrol-5-yl}-carbonyl)-N-(furan-2-ylmethyl)piperidine-4-carboxamide] |  | > 20 |  | viability at 12.5 µM (Fort Morgan virus (FMV) [2]): 70%; concentration effectively suppressing FMV-induced cytopathic effect (as low as) (Fort Morgan virus (FMV) [3]): ≤ 3 µmol/L; suppression of infectious FMV production (Fort Morgan virus (FMV) [4]): > 90%; viability at 12.5 µM (Sindbis virus (SINV)): 50%
O=C(NCc1ccccc1)C1CCN(C(=O)c2cc3sccc3n2Cc2ccc(F)cc2)CC1 [CCG32088] | submicromolar |  |  | 

From PMC2788236 (The Journal of infectious diseases, 2009)
